Results on 3 molecules are retold here after paper PMC5943490, “Altered Expression of the Malate-Permeable Anion Channel OsALMT4 Reduces the Growth of Rice Under Low Radiance” (Frontiers in Plant Science, 2018).

Assay [1] deals with T1, OsALMT4 (Oryza sativa, UniProt Q0JPI1).
T1 construct: gene Os01g0221600; full-length, constitutively over-expressed in transgenic rice (homozygous line OX5)
T1 sequence (Q0JPI1 1-524): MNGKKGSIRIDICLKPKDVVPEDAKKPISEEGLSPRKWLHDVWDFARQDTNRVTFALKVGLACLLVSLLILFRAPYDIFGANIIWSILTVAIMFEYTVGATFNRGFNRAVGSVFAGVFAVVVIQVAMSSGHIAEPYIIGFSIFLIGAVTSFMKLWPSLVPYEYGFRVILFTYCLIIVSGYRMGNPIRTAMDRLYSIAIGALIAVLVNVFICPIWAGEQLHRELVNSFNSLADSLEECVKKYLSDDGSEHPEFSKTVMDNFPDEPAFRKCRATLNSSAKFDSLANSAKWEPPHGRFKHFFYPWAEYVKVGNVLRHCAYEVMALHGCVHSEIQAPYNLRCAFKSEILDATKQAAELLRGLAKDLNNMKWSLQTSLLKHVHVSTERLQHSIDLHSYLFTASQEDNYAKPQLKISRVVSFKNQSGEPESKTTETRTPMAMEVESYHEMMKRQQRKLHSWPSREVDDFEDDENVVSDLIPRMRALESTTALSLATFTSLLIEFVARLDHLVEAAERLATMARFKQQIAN
In words: malate efflux from intact OX5 seedlings. The following applies: read-out: malate efflux, % of control at 100 μM.

Assay [2] concerns the target T1, OsALMT4. In words: malate efflux from intact OX5 and OX5_null seedlings. Particulars: pH 5.6; transported anion, stereo not told.
The target in assay [3] is T1, OsALMT4. The experiment in a line: malate efflux from intact OX5 seedlings, concentration series. The following applies: read-out: Ki (half maximum inhibition).

As to `O=C(O)c1cccnc1Nc1cccc(C(F)(F)F)c1` [niflumate], the remaining activity at 100 µM in assay [1] was below 20%.
As for `O=C(O)C[C@H](O)C(=O)O` [malate], the “malate efflux from intact OX5 and OX5_null seedlings” value in assay [2] was “SA treatment effectively inhibited malate efflux via OsALMT4 in the transgenic OX lines”.
Turning to `O=C(O)c1ccccc1O` [SA, salicylic acid], in assay [3], the IC50 is 25 µM.
